Assay results as given in patent US20250230159A1, “FUSED HETEROCYCLIC COMPOUNDS AS MODULATORS OF RAS SIGNALLING” (Shenzhen Ionova Life Science Co., Ltd., priority 2022, published 2025).

How the values were obtained:
[1] = system: pERK in Hela cells; assay: Phospho-ERK (p-ERK) assay in Hela cells; assay type: cell-based; conditions: Homo sapiens, Table 1, 1 hour with compound, β-actin normalized
Procedure, shortened: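 Cells were treated for 1 h at 37 °C with compound in a 9-point, 3-fold series from 10 μM, then fixed and stained for pERK and β-actin. An In-Cell Western read-out normalized pERK to β-actin and to vehicle wells to give % inhibition and IC50.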

[2] = biological target: KRAS-G12C/SOS1 interaction (Homo sapiens (Human), UniProt Q07889); assay: Protein-Protein Interaction (PPI) assay, SOS1-KRAS binding assay kit (HTRF); conditions: read-out: PPI Assay IC50
Sequence of KRAS-G12C/SOS1 interaction (Q07889 whole entry, stated change not applied): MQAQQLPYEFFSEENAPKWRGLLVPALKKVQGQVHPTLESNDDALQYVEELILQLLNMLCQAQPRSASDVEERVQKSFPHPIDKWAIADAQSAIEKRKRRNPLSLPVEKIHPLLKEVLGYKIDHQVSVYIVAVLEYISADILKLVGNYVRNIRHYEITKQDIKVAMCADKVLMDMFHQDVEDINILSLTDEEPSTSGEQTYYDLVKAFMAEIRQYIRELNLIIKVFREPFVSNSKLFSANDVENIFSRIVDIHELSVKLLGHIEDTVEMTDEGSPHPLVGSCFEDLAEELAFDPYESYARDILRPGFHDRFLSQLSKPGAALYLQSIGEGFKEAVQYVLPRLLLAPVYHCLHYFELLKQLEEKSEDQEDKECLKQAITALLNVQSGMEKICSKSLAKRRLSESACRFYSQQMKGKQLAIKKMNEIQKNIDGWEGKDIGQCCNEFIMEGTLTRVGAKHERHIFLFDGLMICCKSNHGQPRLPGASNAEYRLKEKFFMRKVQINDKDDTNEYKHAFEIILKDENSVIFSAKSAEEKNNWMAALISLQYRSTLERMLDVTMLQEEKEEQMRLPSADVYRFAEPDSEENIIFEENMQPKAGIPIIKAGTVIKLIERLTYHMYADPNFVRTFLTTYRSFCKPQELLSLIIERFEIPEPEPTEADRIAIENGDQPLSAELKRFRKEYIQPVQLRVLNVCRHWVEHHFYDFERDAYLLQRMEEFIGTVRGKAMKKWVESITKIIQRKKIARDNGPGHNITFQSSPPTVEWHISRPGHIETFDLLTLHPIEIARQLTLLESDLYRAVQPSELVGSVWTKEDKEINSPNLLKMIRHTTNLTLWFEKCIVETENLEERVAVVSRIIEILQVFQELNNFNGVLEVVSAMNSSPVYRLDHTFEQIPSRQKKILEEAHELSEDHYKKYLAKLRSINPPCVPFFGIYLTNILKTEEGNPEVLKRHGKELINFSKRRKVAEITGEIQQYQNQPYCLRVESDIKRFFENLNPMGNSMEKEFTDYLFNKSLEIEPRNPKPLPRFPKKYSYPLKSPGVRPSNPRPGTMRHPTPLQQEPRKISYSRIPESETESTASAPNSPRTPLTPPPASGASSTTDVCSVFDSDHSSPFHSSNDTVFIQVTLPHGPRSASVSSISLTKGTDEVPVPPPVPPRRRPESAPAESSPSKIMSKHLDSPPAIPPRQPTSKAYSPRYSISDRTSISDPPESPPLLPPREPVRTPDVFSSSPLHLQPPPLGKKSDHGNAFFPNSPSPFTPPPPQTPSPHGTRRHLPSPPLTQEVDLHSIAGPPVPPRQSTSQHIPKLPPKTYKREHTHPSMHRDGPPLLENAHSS

IC50 [2] [nM]	SMILES	IC50 [1] [nM]
< 100	Cc1nc(N[C@H](C)c2cccc(C(F)F)c2F)c2cc(N3CCOCC3=O)c3nncn3c2n1 [Example 163]	< 100
< 100	C[C@@H](Nc1ncnc2c1cc(N1CCN(C)C(=O)C1)c1nncn12)c1cccc(C(F)F)c1F [Example 164]	< 100
< 100	C[C@@H](Nc1ncnc2c1cc(N1CCOC1=O)c1nncn12)c1cccc(C(F)F)c1F [Example 167]	< 100
< 100	C[C@@H](Nc1ncnc2c1cc(N1C(=O)COC[C@@H]1C)c1nncn12)c1cccc(C(F)F)c1F [Example 168]	< 100
< 100	Cc1nc2c(C3(C(F)(F)F)CC3)cc3c(N[C@H](C)c4cccc(C(F)F)c4F)ncnc3n2n1 [Example 169, (R)—N-(1-(3-(difluoromethyl)-2-fluorophenyl)ethyl)-2-methyl-4-(1-(trifluoromethyl)cyclopropyl)-[1,2,4]triazolo[1′,5′:1,6]pyrido[2,3-d]pyrimidin-6-amine]	< 100
< 100	Cc1nc2c(C3(C#N)CC3)cc3c(N[C@H](C)c4cccc(C(F)F)c4F)ncnc3n2n1 [Example 170, (R)-1-(6-((1-(3-(difluoromethyl)-2-fluorophenyl)ethyl)amino)-2-methyl-[1,2,4]triazolo[1′,5′:1,6]pyrido[2,3-d]pyrimidin-4-yl)cyclopropane-1-carbonitrile]	< 100
< 100	Cc1nc(N[C@H](C)c2cccc(C(F)F)c2F)c2cc(C3(C(F)F)CC3)c3nc(C)nn3c2n1 [Example 171]	< 100
< 100	C[C@@H](Nc1ncnc2c1cc(C1(C(F)(F)F)CC1)c1nncn12)c1cccc(C(F)F)c1F [Example 172]	< 100
< 100	C[C@@H](Nc1ncnc2c1cc(C1(C(F)F)CC1)c1nncn12)c1cccc(C(F)F)c1F [Example 173]	< 100
< 100	Cc1nc2c(N3CC4(COC4)C3)cc3c(N[C@H](C)c4cccc(C(F)F)c4F)ncnc3n2n1 [Example 174]	< 100
